Species on record: Rattus norvegicus
Assay: DrugMatrix - Regimen: Daily Repeat
Format: toxicity, organism-based, Sprague-Dawley
Design: regimen Daily Repeat, gender Male, age 6-8 weeks
Conditions: in vivo, po, 500 mg/kg, route oral GAVAGE, dose level High, vehicle 100 % WATER; for ABSOLUTE BASOPHIL / ABSOLUTE EOSINOPHIL / ABSOLUTE LYMPHOCYTE / ABSOLUTE MONOCYTE / ABSOLUTE SEGMENTED NEUTROPHIL / BASOPHIL / EOSINOPHIL / ERYTHROCYTE COUNT / HEMATOCRIT / HEMOGLOBIN / LEUKOCYTE COUNT / LYMPHOCYTE / MEAN CORPUSCULAR HEMOGLOBIN / MEAN CORPUSCULAR HEMOGLOBIN CONCENTRATION / MEAN CORPUSCULAR VOLUME / MONOCYTE / NEUTROPHIL / NUCLEATED RED BLOOD CELLS / PLATELET COUNT: tissue Blood; for ALANINE AMINOTRANSFERASE / ALBUMIN / ALKALINE PHOSPHATASE / ASPARTATE AMINOTRANSFERASE / BLOOD UREA NITROGEN / CARBON DIOXIDE / CHLORIDE / CHOLESTEROL / CREATINE PHOSPHOKINASE / CREATININE / GLUCOSE / LACTATE DEHYDROGENASE / LIPASE / PHOSPHORUS / POTASSIUM / SODIUM / TOTAL BILIRUBIN / TOTAL PROTEIN / URIC ACID: tissue Plasma

SMILES: Cc1c(O)c(=O)ccn1C [DEFERIPRONE]
- ABSOLUTE BASOPHIL (72 h, time 3 day): 0 CELLS/uL
- ABSOLUTE EOSINOPHIL (72 h, time 3 day): 97 CELLS/uL
- ABSOLUTE LYMPHOCYTE (72 h, time 3 day): 8507 CELLS/uL
- ABSOLUTE MONOCYTE (72 h, time 3 day): 223 CELLS/uL
- ABSOLUTE SEGMENTED NEUTROPHIL (72 h, time 3 day): 223 CELLS/uL
- BASOPHIL (72 h, time 3 day): 0%
- EOSINOPHIL (72 h, time 3 day): 1%
- ERYTHROCYTE COUNT (72 h, time 3 day): 4.97 x10E6/uL
- HEMATOCRIT (72 h, time 3 day): 30.95%
- HEMOGLOBIN (72 h, time 3 day): 11.7 G/DL
- LEUKOCYTE COUNT (72 h, time 3 day): 9.05 x10E3/uL
- LYMPHOCYTE (72 h, time 3 day): 94%
- MEAN CORPUSCULAR HEMOGLOBIN (72 h, time 3 day): 23.55 pg
- MEAN CORPUSCULAR HEMOGLOBIN CONCENTRATION (72 h, time 3 day): 37.8 G/DL
- MEAN CORPUSCULAR VOLUME (72 h, time 3 day): 62.15 fL
- MONOCYTE (72 h, time 3 day): 2.5%
- NEUTROPHIL (72 h, time 3 day): 2.5%
- NUCLEATED RED BLOOD CELLS (72 h, time 3 day): 0 /100WBC
- PLATELET COUNT (72 h, time 3 day): 1456.5 x10E3/uL
- ALANINE AMINOTRANSFERASE (72 h, time 3 day): 39 u/L
- ALBUMIN (72 h, time 3 day): 4.4 G/DL
- ALKALINE PHOSPHATASE (72 h, time 3 day): 373 u/L
- ASPARTATE AMINOTRANSFERASE (72 h, time 3 day): 80 u/L
- BLOOD UREA NITROGEN (72 h, time 3 day): 18.5 mg/dL
- CARBON DIOXIDE (72 h, time 3 day): 22.5 mmol/L
- CHLORIDE (72 h, time 3 day): 105.5 MEQ/L
- CHOLESTEROL (72 h, time 3 day): 119 mg/dL
- CREATINE PHOSPHOKINASE (72 h, time 3 day): 322.5 u/L
- CREATININE (72 h, time 3 day): 0.18 mg/dL
- GLUCOSE (72 h, time 3 day): 131 mg/dL
- LACTATE DEHYDROGENASE (72 h, time 3 day): 239 u/L
- LIPASE (72 h, time 3 day): 10 u/L
- PHOSPHORUS (72 h, time 3 day): 11.5 mg/dL
- POTASSIUM (72 h, time 3 day): 6.21 MEQ/L
- SODIUM (72 h, time 3 day): 143.8 MEQ/L
- TOTAL BILIRUBIN (72 h, time 3 day): 0.25 mg/dL
- TOTAL PROTEIN (72 h, time 3 day): 6 G/DL
- URIC ACID (72 h, time 3 day): 1.45 mg/dL
- ABSOLUTE BASOPHIL (120 h, time 5 day): 0 CELLS/uL
- ABSOLUTE EOSINOPHIL (120 h, time 5 day): 0 CELLS/uL
- ABSOLUTE LYMPHOCYTE (120 h, time 5 day): 9110 CELLS/uL
- ABSOLUTE MONOCYTE (120 h, time 5 day): 78 CELLS/uL
- ABSOLUTE SEGMENTED NEUTROPHIL (120 h, time 5 day): 412 CELLS/uL
- BASOPHIL (120 h, time 5 day): 0%
- EOSINOPHIL (120 h, time 5 day): 0%
- ERYTHROCYTE COUNT (120 h, time 5 day): 5.3 x10E6/uL
- HEMATOCRIT (120 h, time 5 day): 33.8%
- HEMOGLOBIN (120 h, time 5 day): 12.93 G/DL
- LEUKOCYTE COUNT (120 h, time 5 day): 9.6 x10E3/uL
- LYMPHOCYTE (120 h, time 5 day): 95.33%
- MEAN CORPUSCULAR HEMOGLOBIN (120 h, time 5 day): 24.43 pg
- MEAN CORPUSCULAR HEMOGLOBIN CONCENTRATION (120 h, time 5 day): 38.27 G/DL
- MEAN CORPUSCULAR VOLUME (120 h, time 5 day): 63.8 fL
- MONOCYTE (120 h, time 5 day): 0.67%
- NEUTROPHIL (120 h, time 5 day): 4%
- NUCLEATED RED BLOOD CELLS (120 h, time 5 day): 0 /100WBC
- PLATELET COUNT (120 h, time 5 day): 1024.33 x10E3/uL
- ALANINE AMINOTRANSFERASE (120 h, time 5 day): 34.33 u/L
- ALBUMIN (120 h, time 5 day): 4.7 G/DL
- ALKALINE PHOSPHATASE (120 h, time 5 day): 261 u/L
- ASPARTATE AMINOTRANSFERASE (120 h, time 5 day): 61.33 u/L
- BLOOD UREA NITROGEN (120 h, time 5 day): 17 mg/dL
- CARBON DIOXIDE (120 h, time 5 day): 26.33 mmol/L
- CHLORIDE (120 h, time 5 day): 109.33 MEQ/L
- CHOLESTEROL (120 h, time 5 day): 127 mg/dL
- CREATINE PHOSPHOKINASE (120 h, time 5 day): 232.33 u/L
- CREATININE (120 h, time 5 day): 0.21 mg/dL
- GLUCOSE (120 h, time 5 day): 140.33 mg/dL
- LACTATE DEHYDROGENASE (120 h, time 5 day): 60.33 u/L
- LIPASE (120 h, time 5 day): 9 u/L
- PHOSPHORUS (120 h, time 5 day): 11.03 mg/dL
- POTASSIUM (120 h, time 5 day): 6.28 MEQ/L
- SODIUM (120 h, time 5 day): 148.93 MEQ/L
- TOTAL BILIRUBIN (120 h, time 5 day): 0.2 mg/dL
- TOTAL PROTEIN (120 h, time 5 day): 6.63 G/DL
- URIC ACID (120 h, time 5 day): 1.83 mg/dL

Reference: ChEMBL document CHEMBL3885881, “DrugMatrix”
